In ChEMBL document CHEMBL2203185, “Development of sub-nanomolar dipeptidic ligands of neuropeptide FF receptors” (Bioorg Med Chem Lett, 2012):
Non-standard residues stand in square brackets, D forms with d. Residues, ends and D or L forms follow the SMILES beside them. Inp = O=C(O)C1CCNCC1

Experiments:
Format in all cases: cell-based
[1] = biological target: T1, Neuropeptide FF receptor 2 (Homo sapiens, UniProt Q9Y5X5); experiment: Displacement of [3H]FFRF-NH2 from human flag-tagged NPFF2 receptor expressed in CHO cells at 500 nM by scintillation counting
[2] = biological target: T1, Neuropeptide FF receptor 2; experiment: Displacement of [3H]FFRF-NH2 from human flag-tagged NPFF2 receptor expressed in CHO cells at 5 uM by scintillation counting
[3] = biological target: T2, Neuropeptide FF receptor 1 (Homo sapiens, UniProt Q9GZQ6); experiment: Displacement of [3H]FFRF-NH2 from human flag-tagged NPFF1 receptor expressed in CHO cells at 500 nM by scintillation counting
[4] = biological target: T2, Neuropeptide FF receptor 1; experiment: Displacement of [3H]FFRF-NH2 from human flag-tagged NPFF1 receptor expressed in CHO cells at 5 uM by scintillation counting

T1 sequence (Q9Y5X5 whole entry): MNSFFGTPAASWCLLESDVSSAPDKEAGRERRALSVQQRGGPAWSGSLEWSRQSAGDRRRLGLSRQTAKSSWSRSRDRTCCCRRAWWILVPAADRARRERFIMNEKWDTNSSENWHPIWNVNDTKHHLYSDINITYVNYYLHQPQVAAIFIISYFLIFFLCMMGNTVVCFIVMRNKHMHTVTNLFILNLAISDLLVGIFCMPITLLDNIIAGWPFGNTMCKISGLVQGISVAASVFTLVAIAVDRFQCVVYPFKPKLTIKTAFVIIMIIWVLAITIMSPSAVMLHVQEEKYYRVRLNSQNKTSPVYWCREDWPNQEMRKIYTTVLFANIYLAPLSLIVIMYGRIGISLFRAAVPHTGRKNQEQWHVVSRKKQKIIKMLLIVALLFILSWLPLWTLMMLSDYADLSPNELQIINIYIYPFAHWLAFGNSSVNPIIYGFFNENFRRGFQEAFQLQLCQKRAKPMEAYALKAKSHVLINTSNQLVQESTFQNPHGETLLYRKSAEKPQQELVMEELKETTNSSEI
T2 sequence (Q9GZQ6 whole entry): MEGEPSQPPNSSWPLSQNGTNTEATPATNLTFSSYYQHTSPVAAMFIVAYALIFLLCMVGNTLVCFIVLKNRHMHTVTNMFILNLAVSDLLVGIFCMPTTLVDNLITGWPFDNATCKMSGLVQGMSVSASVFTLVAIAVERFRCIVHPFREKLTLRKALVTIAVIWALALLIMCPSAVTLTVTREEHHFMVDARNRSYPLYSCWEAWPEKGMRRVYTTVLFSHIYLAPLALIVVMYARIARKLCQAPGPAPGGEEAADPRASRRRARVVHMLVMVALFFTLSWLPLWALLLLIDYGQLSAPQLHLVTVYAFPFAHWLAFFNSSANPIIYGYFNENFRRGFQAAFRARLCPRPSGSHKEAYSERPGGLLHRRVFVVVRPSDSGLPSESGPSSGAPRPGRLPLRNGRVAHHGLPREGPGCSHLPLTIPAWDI

SMILES	inhibition [1] [%]	inhibition [2] [%]	inhibition [3] [%]	inhibition [4] [%]
N=C(N)NCCC[C@H](NC(=O)Cc1ccc(O)cc1)C(=O)N[C@@H](Cc1ccccc1)C(N)=O	0	26	32	76
N=C(N)NCCC[C@H](NC(=O)c1[nH]c2ccccc2c1-c1ccccc1)C(=O)N[C@@H](Cc1ccccc1)C(N)=O	14	27	39	92
N=C(N)NCCC[C@H](NC(=O)Cc1ccc(Cl)cc1)C(=O)N[C@@H](Cc1ccccc1)C(N)=O	9	63	62	100
N=C(N)NCCC[C@H](NC(=O)c1cccc(C(=O)c2ccccc2)c1)C(=O)N[C@@H](Cc1ccccc1)C(N)=O	0	40	15	78
N=C(N)NCCC[C@H](NC(=O)Cc1ccc(O)c(O)c1)C(=O)N[C@@H](Cc1ccccc1)C(N)=O	17	38	0	61
COc1ccc(CC(=O)N[C@@H](CCCNC(=N)N)C(=O)N[C@@H](Cc2ccccc2)C(N)=O)cc1	14	21	18	52
N=C(N)NCCC[C@H](NC(=O)c1ccc(-c2ccccc2)cc1)C(=O)N[C@@H](Cc1ccccc1)C(N)=O	0	15	20	43
N=C(N)NCCC[C@@H](NC(=O)c1ccccc1-c1ccccc1)C(=O)N[C@H](Cc1ccccc1)C(N)=O	8	70	85	92
COc1ccc(C(=O)N[C@@H](CCCNC(=N)N)C(=O)N[C@@H](Cc2ccccc2)C(N)=O)cc1OC	0	27	13	65
N=C(N)NCCC[C@H](NC(=O)c1ccncc1)C(=O)N[C@@H](Cc1ccccc1)C(N)=O	2	21	18	74
N=C(N)NCCC[C@H](NC(=O)c1cccc(-c2ccccc2)c1)C(=O)N[C@@H](Cc1ccccc1)C(N)=O	27	56	26	82
CC(C)(C)C(=O)N[C@@H](CCCNC(=N)N)C(=O)N[C@@H](Cc1ccccc1)C(N)=O	38	48	35	91
CCCCCC(=O)N[C@@H](CCCNC(=N)N)C(=O)N[C@@H](Cc1ccccc1)C(N)=O	30	53	45	95
Cc1ccc(CC(=O)N[C@@H](CCCNC(=N)N)C(=O)N[C@@H](Cc2ccccc2)C(N)=O)cc1	5	14	34	72
N=C(N)NCCC[C@H](NC(=O)CC(c1ccccc1)c1ccccc1)C(=O)N[C@@H](Cc1ccccc1)C(N)=O	16	40	37	89
N=C(N)NCCC[C@H](NC(=O)C(c1ccccc1)c1ccccc1)C(=O)N[C@@H](Cc1ccccc1)C(N)=O	0	33	34	88
COc1ccc(/C=C/C(=O)N[C@@H](CCCNC(=N)N)C(=O)N[C@@H](Cc2ccccc2)C(N)=O)cc1	21	64	35	100
N=C(N)NCCC[C@@H](NC(=O)c1ccccc1)C(=O)N[C@H](Cc1ccccc1)C(N)=O	15	30	35	73
N=C(N)NCCC[C@H](NC(=O)c1ccco1)C(=O)N[C@@H](Cc1ccccc1)C(N)=O	3	23	42	92
N=C(N)NCCC[C@H](NC(=O)c1ccc2ccccc2n1)C(=O)N[C@@H](Cc1ccccc1)C(N)=O	28	82	34	100
N=C(N)NCCC[C@@H](NC(=O)c1cccc(-c2ccccc2)c1)C(=O)N[C@@H](Cc1ccccc1)C(N)=O	65	72	85	99
N=C(N)NCCC[C@H](NC(=O)c1ccccc1-c1ccccc1)C(=O)N[C@@H](Cc1ccccc1)C(N)=O	22	30	96	100
N=C(N)NCCC[C@H](NC(=O)/C=C/c1cnc[nH]1)C(=O)N[C@@H](Cc1ccccc1)C(N)=O	0	18	1	22
N=C(N)NCCC[C@H](NC(=O)/C=C/c1ccccc1O)C(=O)N[C@@H](Cc1ccccc1)C(N)=O	17	77	25	82

SMILES	inhibition [1] [%]	inhibition [2] [%]	inhibition [3] [%]	inhibition [4] [%]
N=C(N)NCCC[C@H](NC(=O)c1ccc2nc[nH]c2c1)C(=O)N[C@@H](Cc1ccccc1)C(N)=O	8	27	9	28
N=C(N)NCCC[C@@H](NC(=O)c1ccc(-c2ccccc2)cc1)C(=O)N[C@@H](Cc1ccccc1)C(N)=O	43	57	81	92
N=C(N)NCCC[C@H](NC(=O)CCN1c2ccccc2Sc2ccccc21)C(=O)N[C@@H](Cc1ccccc1)C(N)=O	31	59	100	100
COc1ccc(C(=O)N[C@@H](CCCNC(=N)N)C(=O)N[C@@H](Cc2ccccc2)C(N)=O)cc1	1	21	18	71
N=C(N)NCCC[C@H](NC(=O)c1ccc(Cl)cc1)C(=O)N[C@@H](Cc1ccccc1)C(N)=O	3	7	37	59
N=C(N)NCCC[C@H](NC(=O)c1ccc(Cl)cc1Cl)C(=O)N[C@@H](Cc1ccccc1)C(N)=O	2	38	0	75
N=C(N)NCCC[C@@H](NC(=O)c1ccc(-c2ccccc2)cc1)C(=O)N[C@H](Cc1ccccc1)C(N)=O	6	50	40	83
N=C(N)NCCC[C@H](NC(=O)c1nc2ccccc2[nH]1)C(=O)N[C@@H](Cc1ccccc1)C(N)=O	12	49	35	98
N=C(N)NCCC[C@@H](NC(=O)Cc1ccccc1)C(=O)N[C@H](Cc1ccccc1)C(N)=O	4	30	43	78
COc1ccc(/C=C/C(=O)N[C@@H](CCCNC(=N)N)C(=O)N[C@@H](Cc2ccccc2)C(N)=O)cc1OC	4	34	19	77
N=C(N)NCCC[C@H](NC(=O)c1cc2ccccc2[nH]1)C(=O)N[C@@H](Cc1ccccc1)C(N)=O	35	80	26	86
N=C(N)NCCC[C@H](NC(=O)Cc1ccccc1O)C(=O)N[C@@H](Cc1ccccc1)C(N)=O	16	37	27	92
COc1ccc(C(=O)N[C@@H](CCCNC(=N)N)C(=O)N[C@@H](Cc2ccccc2)C(N)=O)cn1	14	54	19	77
N=C(N)NCCC[C@H](NC(=O)C1CCNCC1)C(=O)N[C@@H](Cc1ccccc1)C(N)=O (H-[Inp]-Arg-Phe-NH2)	19	59	26	100
CC(C)(C)c1ccc(C(=O)N[C@@H](CCCNC(=N)N)C(=O)N[C@@H](Cc2ccccc2)C(N)=O)cc1	14	31	43	94
N=C(N)NCCC[C@H](NC(=O)Cc1ccccc1)C(=O)N[C@@H](Cc1ccccc1)C(N)=O	5	52	26	82
N=C(N)NCCC[C@H](NC(=O)C12CC3CC(CC(C3)C1)C2)C(=O)N[C@@H](Cc1ccccc1)C(N)=O	40	85	60	97
N=C(N)NCCC[C@@H](NC(=O)Cc1ccccc1)C(=O)N[C@@H](Cc1ccccc1)C(N)=O	30	40	68	87
COc1cccc(CC(=O)N[C@@H](CCCNC(=N)N)C(=O)N[C@@H](Cc2ccccc2)C(N)=O)c1	19	50	42	89
N=C(N)NCCC[C@H](NC(=O)/C=C/c1ccccc1)C(=O)N[C@@H](Cc1ccccc1)C(N)=O	24	46	3	58
N=C(N)NCCC[C@H](NC(=O)CCC(=O)O)C(=O)N[C@@H](Cc1ccccc1)C(N)=O	0	20	29	34
N=C(N)NCCC[C@H](NC(=O)c1ccc(C(=O)c2ccccc2)cc1)C(=O)N[C@@H](Cc1ccccc1)C(N)=O	4	43	14	68
N=C(N)NCCC[C@H](NC(=O)c1cccnc1)C(=O)N[C@@H](Cc1ccccc1)C(N)=O	9	23	11	64
